Laboratory results taken from PubChem BioAssay AID2060621 (Molecular Pharmacology Branch, DTP, NCI, 2025).
Values joined by “and” are separate entries in the source; they are usually repeats but may differ in a detail not shown here. Equal entries are not always repeated.

Tested on: 324938-238-R-J1-PDC complex spheroids viability
Experiment: Anticancer human tumor 324938-238-R-J1-PDC patient-derived bladder carcinoma cell line growth inhibition [CLK]
Conditions: for viability, T/C: stronger effect = lower value
Outline: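 Multi-cell-type spheroids combined patient-derived tumor cells with HUVEC endothelial cells and human mesenchymal stem cells. Paired agents were dosed in half-log steps down from about clinical Cmax, or from 10 microM where Cmax was unknown.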

[1] = curve of first compound, second compound 0.0316 µM
[2] = curve of first compound, second compound 0.1 µM
[3] = curve of first compound, second compound 0.316 µM
[4] = curve of first compound, second compound 1 µM
[5] = curve of first compound, second compound 3.16 µM
[6] = curve of first compound, second compound 10 µM
[7] = second compound 0.0316 µM, first compound 0.000949 µM
[8] = second compound 0.0316 µM, first compound 0.003 µM
[9] = second compound 0.0316 µM, first compound 0.00949 µM
[10] = second compound 0.0316 µM, first compound 0.03 µM
[11] = second compound 0.0316 µM, first compound 0.0949 µM
[12] = second compound 0.0316 µM, first compound 0.3 µM
[13] = second compound 0.1 µM, first compound 0.000949 µM
[14] = second compound 0.1 µM, first compound 0.003 µM
[15] = second compound 0.1 µM, first compound 0.00949 µM
[16] = second compound 0.1 µM, first compound 0.03 µM
[17] = second compound 0.1 µM, first compound 0.0949 µM
[18] = second compound 0.1 µM, first compound 0.3 µM
[19] = second compound 0.316 µM, first compound 0.000949 µM
[20] = second compound 0.316 µM, first compound 0.003 µM
[21] = second compound 0.316 µM, first compound 0.00949 µM
[22] = second compound 0.316 µM, first compound 0.03 µM
[23] = second compound 0.316 µM, first compound 0.0949 µM
[24] = second compound 0.316 µM, first compound 0.3 µM
[25] = second compound 1 µM, first compound 0.000949 µM
[26] = second compound 1 µM, first compound 0.003 µM
[27] = second compound 1 µM, first compound 0.00949 µM
[28] = second compound 1 µM, first compound 0.03 µM
[29] = second compound 1 µM, first compound 0.0949 µM
[30] = second compound 1 µM, first compound 0.3 µM
[31] = second compound 3.16 µM, first compound 0.000949 µM
[32] = second compound 3.16 µM, first compound 0.003 µM
[33] = second compound 3.16 µM, first compound 0.00949 µM
[34] = second compound 3.16 µM, first compound 0.03 µM
[35] = second compound 3.16 µM, first compound 0.0949 µM
[36] = second compound 3.16 µM, first compound 0.3 µM
[37] = second compound 10 µM, first compound 0.000949 µM
[38] = second compound 10 µM, first compound 0.003 µM
[39] = second compound 10 µM, first compound 0.00949 µM
[40] = second compound 10 µM, first compound 0.03 µM
[41] = second compound 10 µM, first compound 0.0949 µM
[42] = second compound 10 µM, first compound 0.3 µM
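Further: viability read after seven days of drug exposure.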
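Wherever viability, T/C is given: 100% = DMSO vehicle control wells.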

CC(C)CC(NC(=O)C(Cc1ccccc1)NC(=O)c1cnccn1)B(O)O (stereo not given) + CNC(=O)c1ccc(Nc2nc(OC3CCCC3)c3c(-c4ccc5nc(C)oc5c4)c[nH]c3n2)c(OC)c1
IC50 [1]: 1.27 nM
IC50 [2]: < 0.949 nM
IC50 [3]: < 0.949 nM
IC50 [4]: < 0.949 nM
IC50 [5]: < 0.949 nM
IC50 [6]: < 0.949 nM
viability, T/C [7]: 66.2%
viability, T/C [8]: 1.72%
viability, T/C [9]: 0.22%
viability, T/C [10]: 0.21%
viability, T/C [11]: 0.13%
viability, T/C [12]: 0.19%
viability, T/C [13]: 37.7%
viability, T/C [14]: 1.25%
viability, T/C [15]: 0.18%
viability, T/C [16]: 0.13%
viability, T/C [17]: 0.55%
viability, T/C [18]: 0.13%
viability, T/C [19]: 21.6%
viability, T/C [20]: 1.05%
viability, T/C [21]: 0.17%
viability, T/C [22]: 0.08%
viability, T/C [23]: 0.1%
viability, T/C [24]: 0.13%
viability, T/C [25]: 17.3%
viability, T/C [26]: 0.5%
viability, T/C [27]: 0.13%
viability, T/C [28]: 0.1%
viability, T/C [29]: 0.1%
viability, T/C [30]: 0.12%
viability, T/C [31]: 12.2%
viability, T/C [32]: 0.3%
viability, T/C [33]: 0.2%
viability, T/C [34]: 0.09%
viability, T/C [35]: 0.14%
viability, T/C [36]: 0.16%
viability, T/C [37]: 12%
viability, T/C [38]: 0.29%
viability, T/C [39]: 0.87%
viability, T/C [40]: 0.13%
viability, T/C [41]: 1.24%
viability, T/C [42]: 0.19%

C=CC(=O)Nc1cc(Nc2nccc(-c3cn(C)c4ccccc34)n2)c(OC)cc1N(C)CCN(C)C + CN1CCN(c2cc(C(=O)Nc3cc4cc(-c5cnn(C)c5)ccc4cn3)ccn2)CC1
IC50 [1]: 69.5 nM
IC50 [2]: 6.25 nM
IC50 [3]: < 0.949 nM
IC50 [4]: < 0.949 nM
IC50 [5]: < 0.949 nM
IC50 [6]: < 0.949 nM
viability, T/C [7]: 80%
viability, T/C [8]: 77.5%
viability, T/C [9]: 69.7%
viability, T/C [10]: 66.3%
viability, T/C [11]: 43.7%
viability, T/C [12]: 25.3%
viability, T/C [13]: 60.3%
viability, T/C [14]: 48.5%
viability, T/C [15]: 51%
viability, T/C [16]: 39%
viability, T/C [17]: 33%
viability, T/C [18]: 19.1%
viability, T/C [19]: 19.7%
viability, T/C [20]: 22.8%
viability, T/C [21]: 20.9%
viability, T/C [22]: 21.8%
viability, T/C [23]: 17.1%
viability, T/C [24]: 15.7%
viability, T/C [25]: 1.22%
viability, T/C [26]: 1.22%
viability, T/C [27]: 1.43%
viability, T/C [28]: 1.11%
viability, T/C [29]: 1.21%
viability, T/C [30]: 0.28%
viability, T/C [31]: 0.13%
viability, T/C [32]: 0.13%
viability, T/C [33]: 0.19%
viability, T/C [34]: 0.14%
viability, T/C [35]: 0.11%
viability, T/C [36]: 0.16%
viability, T/C [37]: 0.15%
viability, T/C [38]: 0.16%
viability, T/C [39]: 0.21%
viability, T/C [40]: 0.16%
viability, T/C [41]: 0.18%
viability, T/C [42]: 0.21%

COc1cccc2c1C(=O)c1c(O)c3c(c(O)c1C2=O)CC(O)(C(=O)CO)CC3OC1CC(N)C(O)C(C)O1 (stereo not given)
viability, T/C (compound 0.0316 µM): 18.6% and 20.6%
viability, T/C (compound 0.1 µM): 12.3% and 18%
viability, T/C (compound 0.316 µM): 7.21% and 8.55%
viability, T/C (compound 1 µM): 1.1% and 0.74%
viability, T/C (compound 3.16 µM): 0.07% and 0.13%
viability, T/C (compound 10 µM): 0.18% and 0.15%
IC50 (curve of compound): < 31.6 nM

COC1C=CCC(C)C(C)S(=O)(=O)NC(=O)c2ccc3c(c2)N(CC2CCC21)CC1(CCCc2cc(Cl)ccc21)CO3 (stereo not given)
viability, T/C (compound 0.0316 µM): 73.8% and 71.3%
viability, T/C (compound 0.1 µM): 78.3% and 65.3%
viability, T/C (compound 0.316 µM): 39.4% and 28.4%
viability, T/C (compound 1 µM): 21% and 21.4%
viability, T/C (compound 3.16 µM): 17.9% and 14.6%
viability, T/C (compound 10 µM): 10.5% and 7.78%
IC50 (curve of compound): 227 nM and 160 nM

C=CC(=O)Nc1cc(Nc2nccc(-c3cn(C)c4ccccc34)n2)c(OC)cc1N(C)CCN(C)C + CNC(=O)c1ccc(Nc2nc(OC3CCCC3)c3c(-c4ccc5nc(C)oc5c4)c[nH]c3n2)c(OC)c1
IC50 [1]: 39.6 nM
IC50 [2]: < 0.949 nM
IC50 [3]: < 0.949 nM
IC50 [4]: < 0.949 nM
IC50 [5]: < 0.949 nM
IC50 [6]: < 0.949 nM
viability, T/C [7]: 92.5%
viability, T/C [8]: 87.2%
viability, T/C [9]: 74.5%
viability, T/C [10]: 52.8%
viability, T/C [11]: 38.6%
viability, T/C [12]: 27.7%
viability, T/C [13]: 30.5%
viability, T/C [14]: 24.8%
viability, T/C [15]: 21.4%
viability, T/C [16]: 20.3%
viability, T/C [17]: 15.6%
viability, T/C [18]: 14.1%
viability, T/C [19]: 19%
viability, T/C [20]: 16.8%
viability, T/C [21]: 19.2%
viability, T/C [22]: 16.2%
viability, T/C [23]: 13.4%
viability, T/C [24]: 12.9%
viability, T/C [25]: 16.8%
viability, T/C [26]: 15.5%
viability, T/C [27]: 16.8%
viability, T/C [28]: 11.8%
viability, T/C [29]: 11.1%
viability, T/C [30]: 11.5%
viability, T/C [31]: 16.8%
viability, T/C [32]: 17.6%
viability, T/C [33]: 13.1%
viability, T/C [34]: 14.3%
viability, T/C [35]: 11.9%
viability, T/C [36]: 11.8%
viability, T/C [37]: 18.1%
viability, T/C [38]: 17.9%
viability, T/C [39]: 14.8%
viability, T/C [40]: 13.2%
viability, T/C [41]: 12.4%
viability, T/C [42]: 11.5%
